From publication PMC11997881, “Comprehensive Characterization of Bruton’s Tyrosine Kinase Inhibitor Specificity, Potency, and Biological Effects: Insights into Covalent and Noncovalent Mechanistic Signatures” (ACS Pharmacology & Translational Science, 2025)
pIC50, pKd: −log10 of the molar value.

Columns and labels:
BTK [1] = target: T1, BTK (Homo sapiens, UniProt Q06187); assay: scanMAX binding POC, BTK; conditions: 1 μM; zero POC = competition comparable to positive control
T1 construct: host or cells: transiently transfected HEK293 cells
Excerpt: (§1) Comprehensive Characterization of Bruton’s Tyrosine Kinase Inhibitor Specificity, Potency, and
(§2) Biological Effects: Insights into Covalent and Non-Covalent Mechanistic Signatures
(§3) Antonia C. Darragh1, Andrew M. Hanna1, Justin H. Lipner2, Alastair J. King2, Nicole B. Servant1, Mirza Jahic1*
(§4) *To whom correspondence should be addressed: Mirza Jahic, e-mail address: Mirza.Jahic@discovery.eurofinsus.com
(§5) Supporting Table S1. Comparison of BTK inhibitor specificity to TEC family members. TEC family members are
(§6) Burton’s tyrosine kinase (BTK), tyrosine kinase expressed in hepatocellular carcinoma (TEC), bone marrow-
(§7) expressed kinase (BMX/ETK), and T cell-expressed kinase (TXK/RLK), and interleukin-2-inducible T cell kinase
(§8) A zero POC signifies that the compound

TEC = target: T2, TEC (Homo sapiens, UniProt P42680); assay: scanMAX binding POC, TEC; conditions: 1 μM
T2 sequence (P42680 1-631): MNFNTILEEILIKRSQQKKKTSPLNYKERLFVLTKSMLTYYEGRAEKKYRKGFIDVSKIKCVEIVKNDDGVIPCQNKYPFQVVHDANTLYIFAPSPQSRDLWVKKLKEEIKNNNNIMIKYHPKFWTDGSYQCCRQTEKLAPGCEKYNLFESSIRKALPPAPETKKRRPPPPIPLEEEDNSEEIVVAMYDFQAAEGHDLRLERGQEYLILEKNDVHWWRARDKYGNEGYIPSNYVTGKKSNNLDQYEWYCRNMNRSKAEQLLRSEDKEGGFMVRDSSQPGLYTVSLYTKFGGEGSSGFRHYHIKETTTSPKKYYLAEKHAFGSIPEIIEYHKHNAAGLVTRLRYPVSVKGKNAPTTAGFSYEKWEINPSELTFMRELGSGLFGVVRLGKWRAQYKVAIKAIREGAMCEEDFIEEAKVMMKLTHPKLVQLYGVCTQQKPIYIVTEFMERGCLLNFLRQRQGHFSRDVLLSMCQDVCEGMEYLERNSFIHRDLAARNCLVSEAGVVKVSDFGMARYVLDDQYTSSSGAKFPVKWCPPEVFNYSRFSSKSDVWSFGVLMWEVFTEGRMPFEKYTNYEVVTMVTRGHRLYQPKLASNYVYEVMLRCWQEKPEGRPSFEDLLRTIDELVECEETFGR
Excerpt: as §1, §2, §3, §4, §5, §6, §7, §8

TXK = target: T3, TXK (Homo sapiens, UniProt P42681); assay: scanMAX binding POC, TXK; conditions: 1 μM
T3 sequence (P42681 1-527): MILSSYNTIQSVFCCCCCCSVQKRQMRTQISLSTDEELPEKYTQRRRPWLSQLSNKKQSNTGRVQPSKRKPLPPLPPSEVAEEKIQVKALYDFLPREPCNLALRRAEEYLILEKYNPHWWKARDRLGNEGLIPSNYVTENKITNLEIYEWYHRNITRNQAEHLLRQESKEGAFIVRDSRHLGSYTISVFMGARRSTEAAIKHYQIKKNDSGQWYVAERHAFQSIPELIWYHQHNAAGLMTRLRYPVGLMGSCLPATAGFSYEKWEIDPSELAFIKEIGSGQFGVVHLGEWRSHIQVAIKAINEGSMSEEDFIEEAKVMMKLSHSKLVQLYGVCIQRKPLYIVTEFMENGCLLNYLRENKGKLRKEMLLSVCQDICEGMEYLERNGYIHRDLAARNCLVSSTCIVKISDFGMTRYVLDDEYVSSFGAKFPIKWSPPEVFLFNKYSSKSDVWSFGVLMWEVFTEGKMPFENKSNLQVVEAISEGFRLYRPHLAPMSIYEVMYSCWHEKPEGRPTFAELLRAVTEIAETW
Excerpt: as §1, §2, §3, §4, §5, §6, §7, §8

ITK = target: T4, ITK (Homo sapiens, UniProt Q08881); assay: scanMAX binding POC, ITK; conditions: 1 μM
T4 sequence (Q08881 1-620): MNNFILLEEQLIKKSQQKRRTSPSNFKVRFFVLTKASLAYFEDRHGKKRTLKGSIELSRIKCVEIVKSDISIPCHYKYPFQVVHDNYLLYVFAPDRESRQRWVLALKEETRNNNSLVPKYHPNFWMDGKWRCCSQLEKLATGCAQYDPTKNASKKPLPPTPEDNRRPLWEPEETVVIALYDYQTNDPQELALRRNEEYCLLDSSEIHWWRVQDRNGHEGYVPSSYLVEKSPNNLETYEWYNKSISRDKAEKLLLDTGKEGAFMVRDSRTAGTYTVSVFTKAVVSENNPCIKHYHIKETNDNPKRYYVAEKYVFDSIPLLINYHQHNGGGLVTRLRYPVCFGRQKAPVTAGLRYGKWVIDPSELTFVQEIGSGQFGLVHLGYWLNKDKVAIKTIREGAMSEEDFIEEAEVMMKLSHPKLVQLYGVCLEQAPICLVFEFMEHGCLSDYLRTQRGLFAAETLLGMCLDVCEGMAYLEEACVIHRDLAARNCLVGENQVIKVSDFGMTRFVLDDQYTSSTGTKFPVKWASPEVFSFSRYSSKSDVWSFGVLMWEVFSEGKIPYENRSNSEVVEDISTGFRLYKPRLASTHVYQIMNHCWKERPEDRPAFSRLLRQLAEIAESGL
Excerpt: as §1, §2, §3, §4, §5, §6, §7, §8

BLK = BLK (Homo sapiens, UniProt P51451); assay: scanMAX binding POC, BLK; conditions: 1 μM
BLK, sequence (P51451 whole entry): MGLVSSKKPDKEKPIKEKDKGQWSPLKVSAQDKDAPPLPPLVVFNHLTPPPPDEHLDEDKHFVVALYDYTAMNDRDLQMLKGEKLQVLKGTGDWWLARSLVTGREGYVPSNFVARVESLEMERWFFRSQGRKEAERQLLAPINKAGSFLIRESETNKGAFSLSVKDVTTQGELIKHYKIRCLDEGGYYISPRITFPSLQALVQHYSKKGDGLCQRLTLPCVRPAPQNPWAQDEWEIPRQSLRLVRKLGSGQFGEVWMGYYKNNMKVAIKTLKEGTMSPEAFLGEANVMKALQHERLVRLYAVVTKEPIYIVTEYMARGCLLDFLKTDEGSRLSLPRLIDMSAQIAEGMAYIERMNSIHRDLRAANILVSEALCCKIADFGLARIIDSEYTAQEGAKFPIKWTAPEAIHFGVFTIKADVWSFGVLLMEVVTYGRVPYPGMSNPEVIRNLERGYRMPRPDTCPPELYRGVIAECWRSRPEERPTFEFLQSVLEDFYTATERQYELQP

EGFR = EGFR (Homo sapiens, UniProt P00533); assay: scanMAX binding POC, EGFR; conditions: 1 μM
EGFR, sequence (P00533 25-1210): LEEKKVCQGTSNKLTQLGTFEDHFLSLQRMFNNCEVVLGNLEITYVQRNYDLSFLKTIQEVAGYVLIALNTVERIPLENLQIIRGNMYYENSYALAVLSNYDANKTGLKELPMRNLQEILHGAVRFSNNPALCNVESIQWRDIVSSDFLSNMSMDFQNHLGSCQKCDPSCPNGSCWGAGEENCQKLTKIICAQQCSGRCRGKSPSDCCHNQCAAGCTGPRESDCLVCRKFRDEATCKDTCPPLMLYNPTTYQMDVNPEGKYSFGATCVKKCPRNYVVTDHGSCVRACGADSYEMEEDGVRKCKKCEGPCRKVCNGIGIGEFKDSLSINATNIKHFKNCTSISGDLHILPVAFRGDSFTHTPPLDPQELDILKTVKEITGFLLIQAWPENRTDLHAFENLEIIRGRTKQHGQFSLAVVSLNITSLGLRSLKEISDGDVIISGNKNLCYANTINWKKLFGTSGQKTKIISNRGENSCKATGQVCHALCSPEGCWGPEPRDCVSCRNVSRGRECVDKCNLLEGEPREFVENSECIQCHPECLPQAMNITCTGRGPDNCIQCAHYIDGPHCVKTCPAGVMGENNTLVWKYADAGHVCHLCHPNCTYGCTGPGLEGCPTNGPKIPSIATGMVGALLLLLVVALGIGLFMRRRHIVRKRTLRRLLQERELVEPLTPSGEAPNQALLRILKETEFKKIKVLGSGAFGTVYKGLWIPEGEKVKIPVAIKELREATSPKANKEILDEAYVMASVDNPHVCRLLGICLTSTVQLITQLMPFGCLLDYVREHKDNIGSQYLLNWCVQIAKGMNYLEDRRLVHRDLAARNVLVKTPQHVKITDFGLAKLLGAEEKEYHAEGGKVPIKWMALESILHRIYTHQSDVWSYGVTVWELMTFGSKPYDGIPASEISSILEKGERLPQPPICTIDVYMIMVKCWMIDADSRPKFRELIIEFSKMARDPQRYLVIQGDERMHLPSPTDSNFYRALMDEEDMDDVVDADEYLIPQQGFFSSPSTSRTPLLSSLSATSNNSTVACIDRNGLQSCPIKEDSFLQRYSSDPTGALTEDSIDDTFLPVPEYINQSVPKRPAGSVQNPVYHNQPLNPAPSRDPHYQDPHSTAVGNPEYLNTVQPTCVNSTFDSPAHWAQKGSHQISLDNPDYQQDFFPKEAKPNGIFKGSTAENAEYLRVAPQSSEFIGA

ERBB2 = ERBB2 (Homo sapiens, UniProt P04626); assay: scanMAX binding POC, ERBB2; conditions: 1 μM
ERBB3 = ERBB3 (Homo sapiens, UniProt P21860); assay: scanMAX binding POC, ERBB3; conditions: 1 μM
ERBB3, sequence (P21860 20-1342): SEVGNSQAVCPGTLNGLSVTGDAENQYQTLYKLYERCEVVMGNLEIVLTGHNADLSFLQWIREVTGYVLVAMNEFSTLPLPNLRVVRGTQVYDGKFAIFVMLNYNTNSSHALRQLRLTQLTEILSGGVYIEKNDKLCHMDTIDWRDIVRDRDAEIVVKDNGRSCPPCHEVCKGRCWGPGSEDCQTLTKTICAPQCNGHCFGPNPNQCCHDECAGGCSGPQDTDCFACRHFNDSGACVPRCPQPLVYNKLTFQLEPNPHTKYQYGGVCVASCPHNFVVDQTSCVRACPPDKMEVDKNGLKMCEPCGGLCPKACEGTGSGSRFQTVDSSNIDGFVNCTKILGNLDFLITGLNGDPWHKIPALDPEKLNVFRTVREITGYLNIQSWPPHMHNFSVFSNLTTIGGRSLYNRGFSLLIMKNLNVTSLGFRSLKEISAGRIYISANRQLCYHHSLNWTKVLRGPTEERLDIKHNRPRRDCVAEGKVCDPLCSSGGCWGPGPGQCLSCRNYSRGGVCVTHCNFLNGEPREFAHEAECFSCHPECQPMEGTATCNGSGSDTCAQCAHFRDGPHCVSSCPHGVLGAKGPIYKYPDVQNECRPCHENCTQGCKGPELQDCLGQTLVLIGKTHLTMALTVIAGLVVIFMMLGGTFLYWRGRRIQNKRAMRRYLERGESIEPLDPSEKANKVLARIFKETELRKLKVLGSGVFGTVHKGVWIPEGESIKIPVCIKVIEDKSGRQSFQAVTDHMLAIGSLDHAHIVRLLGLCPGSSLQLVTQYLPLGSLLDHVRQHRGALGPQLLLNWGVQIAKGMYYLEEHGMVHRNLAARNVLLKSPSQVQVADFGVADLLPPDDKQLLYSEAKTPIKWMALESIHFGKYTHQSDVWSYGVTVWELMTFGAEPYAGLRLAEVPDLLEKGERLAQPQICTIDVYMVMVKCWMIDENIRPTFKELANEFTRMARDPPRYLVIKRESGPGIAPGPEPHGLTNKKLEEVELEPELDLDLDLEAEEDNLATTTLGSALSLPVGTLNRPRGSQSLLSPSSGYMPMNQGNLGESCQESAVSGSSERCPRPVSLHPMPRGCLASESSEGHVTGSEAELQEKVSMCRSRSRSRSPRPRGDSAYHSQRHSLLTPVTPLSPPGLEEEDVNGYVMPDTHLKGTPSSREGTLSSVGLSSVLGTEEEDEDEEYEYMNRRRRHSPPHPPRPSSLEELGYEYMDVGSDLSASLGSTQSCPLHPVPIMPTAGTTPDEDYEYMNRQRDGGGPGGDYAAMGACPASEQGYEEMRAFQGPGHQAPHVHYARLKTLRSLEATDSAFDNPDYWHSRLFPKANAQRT

ERBB4 = ERBB4 (Homo sapiens, UniProt Q15303); assay: scanMAX binding POC, ERBB4; conditions: 1 μM
ERBB4, sequence (Q15303 26-1308): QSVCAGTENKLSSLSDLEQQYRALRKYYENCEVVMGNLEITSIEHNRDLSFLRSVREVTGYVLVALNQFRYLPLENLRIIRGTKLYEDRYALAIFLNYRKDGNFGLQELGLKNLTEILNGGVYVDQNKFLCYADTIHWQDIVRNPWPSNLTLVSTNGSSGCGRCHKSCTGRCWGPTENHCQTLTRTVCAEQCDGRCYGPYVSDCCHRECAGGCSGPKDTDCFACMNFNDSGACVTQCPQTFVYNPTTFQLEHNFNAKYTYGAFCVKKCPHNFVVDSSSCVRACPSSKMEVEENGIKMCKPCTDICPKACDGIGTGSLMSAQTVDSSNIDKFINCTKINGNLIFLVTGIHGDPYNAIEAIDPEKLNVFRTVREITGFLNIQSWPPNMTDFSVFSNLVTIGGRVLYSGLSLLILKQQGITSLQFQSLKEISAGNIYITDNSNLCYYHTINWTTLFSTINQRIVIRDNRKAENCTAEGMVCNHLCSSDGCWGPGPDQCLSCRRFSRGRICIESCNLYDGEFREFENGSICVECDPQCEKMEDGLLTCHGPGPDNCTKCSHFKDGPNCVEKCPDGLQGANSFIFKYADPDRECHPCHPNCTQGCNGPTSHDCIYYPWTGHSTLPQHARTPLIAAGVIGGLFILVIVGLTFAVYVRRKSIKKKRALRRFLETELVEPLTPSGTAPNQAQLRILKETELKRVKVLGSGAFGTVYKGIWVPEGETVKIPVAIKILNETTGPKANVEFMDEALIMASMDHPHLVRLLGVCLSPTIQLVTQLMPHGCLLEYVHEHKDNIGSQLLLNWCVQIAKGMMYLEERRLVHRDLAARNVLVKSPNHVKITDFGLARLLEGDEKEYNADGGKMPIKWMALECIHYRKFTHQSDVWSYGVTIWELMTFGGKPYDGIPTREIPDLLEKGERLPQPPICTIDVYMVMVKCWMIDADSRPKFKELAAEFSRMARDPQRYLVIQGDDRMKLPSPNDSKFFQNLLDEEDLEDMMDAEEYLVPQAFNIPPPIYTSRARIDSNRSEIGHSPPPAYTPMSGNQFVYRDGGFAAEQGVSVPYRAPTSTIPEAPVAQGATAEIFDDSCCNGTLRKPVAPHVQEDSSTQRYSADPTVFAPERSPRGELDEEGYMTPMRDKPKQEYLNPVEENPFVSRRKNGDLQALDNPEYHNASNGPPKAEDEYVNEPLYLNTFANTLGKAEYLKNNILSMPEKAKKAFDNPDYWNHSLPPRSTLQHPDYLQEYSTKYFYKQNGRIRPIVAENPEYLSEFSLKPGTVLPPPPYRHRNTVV

[2] = target: T5, JAK3 (JH1 catalytic domain) (Homo sapiens, UniProt P52333); assay: scanMAX binding POC, JAK3; conditions: 1 μM
T5 construct: The JAK3 POC is for its JH1 catalytic domain
T5 sequence (P52333 822-1111 limits assumed): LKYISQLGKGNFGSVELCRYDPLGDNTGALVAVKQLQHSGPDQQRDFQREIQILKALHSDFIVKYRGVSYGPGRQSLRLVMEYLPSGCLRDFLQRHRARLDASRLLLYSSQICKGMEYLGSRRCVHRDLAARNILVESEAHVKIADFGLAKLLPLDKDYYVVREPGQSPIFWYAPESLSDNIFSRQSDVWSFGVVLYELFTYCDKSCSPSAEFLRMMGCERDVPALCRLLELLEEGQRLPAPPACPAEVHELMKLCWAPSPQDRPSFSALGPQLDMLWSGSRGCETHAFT

MKK7 = target: T6, MKK7 (Homo sapiens, UniProt O14733); assay: scanMAX binding POC, MKK7; conditions: 1 μM
T6 sequence (O14733 1-419): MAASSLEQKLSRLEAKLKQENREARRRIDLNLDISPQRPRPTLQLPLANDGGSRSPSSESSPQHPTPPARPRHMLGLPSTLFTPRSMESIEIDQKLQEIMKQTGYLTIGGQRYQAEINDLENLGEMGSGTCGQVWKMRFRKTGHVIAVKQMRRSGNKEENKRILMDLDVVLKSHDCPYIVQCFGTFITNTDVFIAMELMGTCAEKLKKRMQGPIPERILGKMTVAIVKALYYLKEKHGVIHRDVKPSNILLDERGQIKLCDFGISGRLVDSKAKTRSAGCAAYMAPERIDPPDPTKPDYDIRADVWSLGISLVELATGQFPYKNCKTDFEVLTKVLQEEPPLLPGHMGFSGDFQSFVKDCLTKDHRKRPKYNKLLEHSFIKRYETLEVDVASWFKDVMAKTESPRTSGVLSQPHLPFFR

BTK C481S [3] = conditions: average of literature values; read-out: average published Kd for BTK C481S; cited from earlier work
patients with CLL = system: patients with CLL; parameters: method as in NCT02477696; conditions: phase III, P = 0.02, ref NCT02477696; cited from earlier work
BTK [4] = conditions: cited from earlier work
JNK1 (MAPK8) = JNK1 (MAPK8) (Homo sapiens, UniProt P45983); assay: scanMAX binding POC, JNK1; conditions: 1 μM
JNK2 (MAPK9) = JNK2 (MAPK9) (Homo sapiens, UniProt P45984); assay: scanMAX binding POC, JNK2; conditions: 1 μM
JNK2 (MAPK9), sequence (P45984 whole entry): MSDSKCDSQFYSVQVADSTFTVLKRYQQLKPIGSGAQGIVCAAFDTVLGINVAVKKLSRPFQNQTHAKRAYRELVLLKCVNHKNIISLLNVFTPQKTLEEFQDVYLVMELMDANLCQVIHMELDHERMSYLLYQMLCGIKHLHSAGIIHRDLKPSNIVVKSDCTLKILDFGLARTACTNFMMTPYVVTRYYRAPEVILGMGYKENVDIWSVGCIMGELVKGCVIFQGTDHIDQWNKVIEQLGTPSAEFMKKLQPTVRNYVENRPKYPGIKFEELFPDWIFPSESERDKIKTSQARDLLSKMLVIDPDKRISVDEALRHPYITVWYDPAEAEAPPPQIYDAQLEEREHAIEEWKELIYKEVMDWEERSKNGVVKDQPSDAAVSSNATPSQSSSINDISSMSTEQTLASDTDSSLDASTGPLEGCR

JNK3 (MAPK10) = JNK3 (MAPK10) (Homo sapiens, UniProt P53779); assay: scanMAX binding POC, JNK3; conditions: 1 μM
BTK C481S [5] = conditions: read-out: average published IC50 for BTK C481S; cited from earlier work
[6] = system: R/R PCNSL lymphoma patients; conditions: three-year follow-up; cited from earlier work
[7] = system: relapsed/refractory (R/R) CLL and small lymphocytic lymphoma (SLL); parameters: method as in NCT03734016; conditions: cited from earlier work

| SMILES | BTK binding POC (BTK [1]) | TEC binding POC (TEC) | TXK binding POC (TXK) | ITK binding POC (ITK) | BLK binding POC (BLK) | EGFR binding POC (EGFR) | ERBB2 binding POC (ERBB2) | ERBB3 binding POC (ERBB3) | ERBB4 binding POC (ERBB4) | JAK3 binding POC [2] | MKK7 binding POC (MKK7) | pIC50 (BTK [4]) | JNK1 (MAPK8) POC (JNK1 (MAPK8)) | JNK2 (MAPK9) POC (JNK2 (MAPK9)) | JNK3 (MAPK10) POC (JNK3 (MAPK10)) | further results |
| --- | --- | --- | --- | --- | --- | --- | --- | --- | --- | --- | --- | --- | --- | --- | --- | --- |
| CC#CC(=O)N1CCC[C@H]1c1nc(-c2ccc(C(=O)Nc3ccccn3)cc2)c2c(N)nccn12 [Acalabrutinib] | 0.2% of control | 14% of control | 47% of control | 100% of control | 57% of control | 61% of control | 4.7% of control | 64% of control | 6.9% of control | 80% of control | 75% of control | […] | 93% of control | 58% of control | 97% of control | pKd (BTK C481S [3]): 6.45; adverse cardiovascular events (patients with CLL): 9.4% |
| C=CC(=O)N1CCC[C@@H](n2nc(-c3ccc(Oc4ccccc4)cc3)c3c(N)ncnc32)C1 [Ibrutinib] |  | 5.9% of control | 0.5% of control |  | 0.25% of control | 0% of control | 0.1% of control | 0.15% of control | 0% of control |  | 0.15% of control | […] | 78% of control | 78% of control |  | pIC50 (BTK C481S [5]): […] |
| CC#CC(=O)N1CC[C@@H](n2c(=O)n(-c3ccc(Oc4ccccc4)cc3)c3c(N)ncnc32)C1 [Tirabrutinib] | 0.35% of control | 9.4% of control | 14% of control |  | 14% of control | 74% of control | 26% of control | 12% of control | 85% of control |  | 87% of control | […] | 99% of control | 92% of control | […] | overall response rate [6]: 63.6% |
| C=CC(=O)N1CCC([C@@H]2CCNc3c(C(N)=O)c(-c4ccc(Oc5ccccc5)cc4)nn32)CC1 [Zanubrutinib] |  | 8.7% of control | 2.2% of control | 74% of control | 0.3% of control | 0% of control | 7.3% of control | 23% of control | 0.75% of control | 20% of control | 55% of control | […] | 99% of control | 95% of control | 93% of control | overall response rate (ORR, partial and complete responses) ([7]; after 15 months, P < 0.001, ref NCT03734016): 78.3%; cardiovascular adverse events ([7]; two-sided P = 0.001, ref NCT03734016): 2.5% |
